The values below come from publication PMC6232179 (Scientific Reports, 2018).

Test [1] relates to IRE1α. The experiment in a line: IRE1α XBP1 splicing luciferase reporter, HEK293 cells. In kind it is cell-based, human. Particulars: for COX-2-dependent stimulation of XBP1 mRNA splicing (IRE1α activity): HEK293, COX-2 siRNA vs scrambled, 24 hours, thapsigargin 0.5 µM, tunicamycin 5 µg/ml, DTT 1 mM, n = 16, Fig. 1D. The protocol: HEK293 cells (human embryonic kidney cells; https://web.expasy.org/cellosaurus/CVCL_0045) were maintained under standard tissue culture conditions, including 5% CO2 with high humidity. Tissue culture media included 10% fetal bovine serum in DMEM (Sigma). Cell transfection, analysis of cell viability and luciferase assays were carried out as described previously.
The pRL-IXFL XBP1 splicing reporter was a generous gift from Dr. R. Kaufman (Sanford Burnham Medical Discovery Institute) and contains an internal Renilla control and the nucleotide sequence encoding XBP1 followed by firefly luciferase separated by an internal ribosomal entry site (IRES) initiation region. This reporter will only generate firefly luciferase if the XBP1 sequence is spliced, bringing the firefly luciferase sequence to the correct reading frame.

Test [2] relates to IRE1α. The experiment in a line: Co-immunoprecipitation of endogenous COX-2 and IRE1α, HEK293 cells. The test is classed as binding, human. Particulars: HEK293, triplicate, Fig. 5A. The protocol: For immunoprecipitation experiments, HEK293 (endogenous IRE1α) or COS-1 cells transfected with the pED-IRE1-NLD-His6-KDEL expression vector were harvested by washing with cold Tris-buffered saline followed by scraping into cold lysis buffer (25 mM Tris-Cl, pH 8.0, 150 mM NaCl, 0.5% Nonidet P-40, and 0.5% sodium deoxycholate). The lysate was incubated on ice for 30 min followed by centrifugation and 30 min incubation at 4 °C with 60 µl of 10% slurry of Protein A/G Sepharose beads (Qiagen) to preclear the lysate. The beads were centrifuged briefly to pellet and washed with five times of cold lysis buffer while the supernatant was transferred to a new Eppendorf tube. For immunoprecipitation of IRE1α, IRE1-NLD or COX-2, 2 µl of anti-IRE1α, anti-His-tag antibodies, COX-2 antibody or an IgG control were added to the supernatant and incubated with rotation overnight at 4 °C. To pull-down the antibody, 100 µl of 10% slurry of Protein A/G Sepharose beads was added and the lysate was incubated 4 hours with rotation at 4 °C. The beads were centrifuged briefly to pellet and washed five times with 1 ml cold lysis buffer. The beads were pelleted, re-suspended in 100 µl SDS-PAGE sample buffer, with 20 µl separated on SDS-PAGE (10% acrylamide), followed by Immunoblot analysis using anti-IRE1α, anti-COX-2, or anti-His-tag antibodies. Experiments were done in triplicate.

The subject of the next test is IRE1-NLD. The test is described as follows: MST, COX-2 titrated to RED-labeled IRE1-NLD. The test is classed as binding. To be noted: red labelled IRE1-NLD, Suppl. Fig. S9. The protocol:
(§1) MST was carried out using a Monolith NT.115 instrument (NanoTemper). To evaluate COX-2 binding to IRE1-NLD, an increasing concentration of purified COX-2 protein (0–10 µM) was incubated with RED-labeled purified IRE1-NLD protein (NanoTemper; as per manufacturer’s protocol). The reverse was also performed, with RED-labeled purified COX-2 incubated with an increasing concentration of purified IRE1-NLD. Positive (cyclophilin A) and negative controls (carbonic anhydrase) were included. […] Positive (cyclophilin A) and negative controls (carbonic anhydrase) were included. […] Experiments were done in triplicate and data evaluation was performed using the Monolith software (NanoTemper).

Test [3] has as its target T1, IRE1-NLD (ER luminal domain of IRE1α) (Homo sapiens, UniProt O75460).
T1 construct: the ER luminal domain of IRE1α (IRE1-NLD); His6 (C); KDEL (ER retention signal) (C); made in house; host or cells: COS-1 cells
T1 sequence (O75460 19-443 limits assumed): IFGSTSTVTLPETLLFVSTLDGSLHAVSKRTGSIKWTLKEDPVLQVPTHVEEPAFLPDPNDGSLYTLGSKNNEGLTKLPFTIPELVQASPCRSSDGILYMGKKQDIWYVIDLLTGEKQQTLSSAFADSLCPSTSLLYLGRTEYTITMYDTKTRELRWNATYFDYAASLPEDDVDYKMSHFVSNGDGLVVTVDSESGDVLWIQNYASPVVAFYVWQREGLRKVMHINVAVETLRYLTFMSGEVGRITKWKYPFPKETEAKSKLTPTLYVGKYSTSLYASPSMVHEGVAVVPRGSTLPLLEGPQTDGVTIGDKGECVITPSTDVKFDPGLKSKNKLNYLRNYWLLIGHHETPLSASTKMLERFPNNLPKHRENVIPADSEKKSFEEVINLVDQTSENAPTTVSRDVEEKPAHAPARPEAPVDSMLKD
The experiment in a line: SPR, binding to immobilized IRE1-NLD. Particulars: CM5 chip, 10 mM Hepes pH 7.4, 150 mM NaCl, 0.005% P20, 30 μl/min, triplicate, 10 µM COX-2, BiP, PDIA6 flowed. Here is the method:
Briefly, a CM5 chip was activated using a 1:1 dilution of EDC:NHS as previously described. Purified protein was diluted in 10 mM NaAc, pH 5 and injected over the activated CM5 chip followed by the blocking solution of 1 M ethanolamine, pH 9. A reference lane with no ligand coupled was generated to subtract background binding. The running buffer was composed of 10 mM Hepes, pH 7.2, 150 mM NaCl, 1 mM EDTA, 0.005% P20, and 2% ethanol. […] For each experiment, the signal was corrected against the control surface response to eliminate any refractive index changes due to buffer change. The data were collected at 25 °C at a flow rate of 30 µl/min to minimize mass transfer effects. Positive (cyclophilin) and negative controls (carbonic anhydrase) were included. Kinetic analysis was performed using the BiaEvaluation software (GE Life Sciences) with a 1:1 Langmuir binding model. Association and dissociation rates and affinity (KD) were calculated for each experiment and averaged. The binding response signals in RUs were continuously recorded and presented graphically as a function of time. For SPR analysis of COX-2 interaction with IRE1-NLD, the carboxymethylated dextran (CMD) surface of a CM5 chip was activated using a 1:1 dilution of EDC:NHS as previously described. Purified IRE1-NLD was captured at a flow rate of 5 μl/min to a total of ~1500 Response Units (RU). […]

A further test addresses T2, COX-2 (Homo sapiens, UniProt P35354).
T2 construct: COX-2 cDNA was purchased from OriGene and cloned into pET-22b containing a 6His-tag; 6His; made in house; host or cells: LEMO21 E. coli
T2 sequence (P35354 18-604): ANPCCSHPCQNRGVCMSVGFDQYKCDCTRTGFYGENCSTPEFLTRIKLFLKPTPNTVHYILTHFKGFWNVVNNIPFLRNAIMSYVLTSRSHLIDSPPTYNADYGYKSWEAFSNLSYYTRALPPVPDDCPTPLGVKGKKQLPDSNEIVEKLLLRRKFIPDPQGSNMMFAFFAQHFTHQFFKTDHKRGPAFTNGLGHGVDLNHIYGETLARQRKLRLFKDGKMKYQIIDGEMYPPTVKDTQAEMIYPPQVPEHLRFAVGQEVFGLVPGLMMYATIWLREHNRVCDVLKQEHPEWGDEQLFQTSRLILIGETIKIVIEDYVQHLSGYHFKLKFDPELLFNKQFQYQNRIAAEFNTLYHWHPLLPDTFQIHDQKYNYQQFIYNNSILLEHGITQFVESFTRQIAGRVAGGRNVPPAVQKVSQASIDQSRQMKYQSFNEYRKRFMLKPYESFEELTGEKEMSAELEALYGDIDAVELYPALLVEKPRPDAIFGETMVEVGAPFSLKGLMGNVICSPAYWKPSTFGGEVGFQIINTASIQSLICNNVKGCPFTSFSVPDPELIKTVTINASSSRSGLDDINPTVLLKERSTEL
In kind it is binding. Here is the method: as §1

The next test relates to COX-2 peroxidase. To be noted: stated without reference; cited from earlier work. From the text: Next, we carried out XBP1 splicing reporter assays in the presence of inhibitors of COX-2 cyclooxygenase or peroxidase activity.

Where two headings read alike, the source gives them in different places.

Broadly, the Kd is the concentration at which binding is half-saturated. A high value points to lower affinity.

Take `Cc1ccc(-c2cc(C(F)(F)F)nn2-c2ccc(S(N)(=O)=O)cc2)cc1` [celecoxib]: the “XBP1 splicing reporter activity with COX-2 inhibitor” value in the test on IRE1α [1] is recorded as “had no effect on the XBP1 splicing activity in the absence or presence of COX-2 silencing”.

On to “COX-2: purified COX-2 protein, 6His-tag, expressed in LEMO21 E. coli cells”, for which the “co-immunoprecipitation with endogenous IRE1α” value in the test with IRE1α [2] is reported as “co-immunoprecipitated with endogenous IRE1α”. Further, in the test on IRE1-NLD, the “binding to IRE1-NLD (MST), wild-type and H374Y” value is “bound to IRE1-NLD”. The molecule also showed an equilibrium dissociation constant (Kd) in test [3] of 880 nM.

On to tunicamycin, for which, in the test with IRE1α [1], the “COX-2-dependent stimulation of XBP1 mRNA splicing (IRE1α activity)” value (from here on “COX-2-dependent stimulation”) is on record as “did not have any effect on COX-2-dependent stimulation of XBP1 mRNA splicing”.

Turning to sodium ortho-vanadate, the “effect on cyclosporine binding to COX-2” value on COX-2 is “not affected”. Besides, in the test with IRE1α [1] (20 μM cyclosporine + inhibitor, in absence or presence of COX-2 silencing, Suppl. Fig. S5B), the “XBP1 splicing reporter activity with COX-2 inhibitor” value is recorded as “significant reduction of XBP1 splicing in the presence of COX-2, but not when COX-2 was silenced”. Besides, the COX-2 peroxidase inhibition entry in the test with COX-2 peroxidase was “an inhibitor of COX-2 peroxidase activity”.

As for `O[C@@H](CS)[C@@H](O)CS` [DTT], the “COX-2-dependent stimulation” value in the test on IRE1α [1] is reported as “did not have any effect on COX-2-dependent stimulation of XBP1 mRNA splicing”.

Take `C/C=C(/C)C(=O)O[C@H]1C(C)=C2[C@H]([C@@H]1OC(=O)CCCCCCC)[C@@](C)(OC(C)=O)C[C@H](OC(=O)CCC)[C@@]1(O)[C@H]2OC(=O)[C@@]1(C)O` [thapsigargin]: in the test with IRE1α [1], the “COX-2-dependent stimulation” value is on record as “did not have any effect on COX-2-dependent stimulation of XBP1 mRNA splicing”.
